Data reported in patent US9255295B2, “Method for evaluating the sensitizing potential of a test compound” (IMMUNOSEARCH, priority 2010, dated 2016).
Read-outs that look alike come from different tables or passages of the source.

System: ARE gene family (AKR1B10, AKR1C1, AKR1C2, CYP1B1, FTH1P, FTL, G6PD, GCLM, NQO2, SLC7A11, TXNRD1, UGT1A1, UGT1A9, YWHAZ, CD36, CYP1A1, GCLC, HMOX1, NQO1, PSME2 …)

O=CC=O [Glyoxal]
AHR NUMBER OF GENES grade (0.1%): 0 (if this expression is lower, the grade is 0)
AKR1B10 NUMBER OF GENES grade (0.1%): 0 (if this expression is lower, the grade is 0)
AKR1C1 NUMBER OF GENES grade (0.1%): 0 (if this expression is lower, the grade is 0)
AKR1C2 NUMBER OF GENES grade (0.1%): 0 (if this expression is lower, the grade is 0)
ARE >1.3 (number of genes) (0.1%): 0
CD36 NUMBER OF GENES grade (0.1%): 0 (if this expression is lower, the grade is 0)
CYP1A1 NUMBER OF GENES grade (0.1%): 0 (if this expression is lower, the grade is 0)
CYP1B1 NUMBER OF GENES grade (0.1%): 0 (if this expression is lower, the grade is 0)
FTH1P NUMBER OF GENES grade (0.1%): 0 (if this expression is lower, the grade is 0)
FTL NUMBER OF GENES grade (0.1%): 0 (if this expression is lower, the grade is 0)
GCLC NUMBER OF GENES grade (0.1%): 0 (if this expression is lower, the grade is 0)
GCLM NUMBER OF GENES grade (0.1%): 0 (if this expression is lower, the grade is 0)
HMOX1 NUMBER OF GENES grade (0.1%): 0 (if this expression is lower, the grade is 0)
NQO1 NUMBER OF GENES grade (0.1%): 0 (if this expression is lower, the grade is 0)
NQO2 NUMBER OF GENES grade (0.1%): 0 (if this expression is lower, the grade is 0)
S100A8 NUMBER OF GENES grade (0.1%): 0 (if this expression is lower, the grade is 0)
SLC7A11 NUMBER OF GENES grade (0.1%): 0 (if this expression is lower, the grade is 0)
TOTAL ARE (number of genes) (0.1%): 0
TXNRD1 NUMBER OF GENES grade (0.1%): 0 (if this expression is lower, the grade is 0)
UGT1A1 NUMBER OF GENES grade (0.1%): 0 (if this expression is lower, the grade is 0)
UGT1A9 NUMBER OF GENES grade (0.1%): 0 (if this expression is lower, the grade is 0)
AHR expression (0.1%, compared to the control): 0.9
AKR1B10 expression (0.1%, compared to the control): 0.6
AKR1C1 expression (0.1%, compared to the control): 0.8
AKR1C2 expression (0.1%, compared to the control): 0.8
CD36 expression (0.1%, compared to the control): 1.1
CYP1A1 expression (0.1%, compared to the control): 0.6
CYP1B1 expression (0.1%, compared to the control): 0.6
FTH1P expression (0.1%, compared to the control): 0.9
FTL expression (0.1%, compared to the control): 1.0
GCLC expression (0.1%, compared to the control): 1.0
GCLM expression (0.1%, compared to the control): 0.9
HMOX1 expression (0.1%, compared to the control): 1.0
NQO1 expression (0.1%, compared to the control): 1.0
NQO2 expression (0.1%, compared to the control): 0.8
S100A8 expression (0.1%, compared to the control): 0.7
SLC7A11 expression (0.1%, compared to the control): 1.0
TXNRD1 expression (0.1%, compared to the control): 1.0
UGT1A1 expression (0.1%, compared to the control): 0.9
UGT1A9 expression (0.1%, compared to the control): 0.3
AHR NUMBER OF GENES grade (1%): 0 (if this expression is lower, the grade is 0)
AKR1B10 NUMBER OF GENES grade (1%): 0 (if this expression is lower, the grade is 0)
AKR1C1 NUMBER OF GENES grade (1%): 0 (if this expression is lower, the grade is 0)
AKR1C2 NUMBER OF GENES grade (1%): 0 (if this expression is lower, the grade is 0)
ARE >1.3 (number of genes) (1%): 1
CD36 expression compared to control (1%): 1.1
CD36 grade (NUMBER OF GENES) (1%): 0 (if this expression is lower, the grade is 0)
CYP1A1 NUMBER OF GENES grade (1%): 0 (if this expression is lower, the grade is 0)
CYP1B1 NUMBER OF GENES grade (1%): 0 (if this expression is lower, the grade is 0)
FTH1P NUMBER OF GENES grade (1%): 0 (if this expression is lower, the grade is 0)
FTL NUMBER OF GENES grade (1%): 0 (if this expression is lower, the grade is 0)
GCLC NUMBER OF GENES grade (1%): 0 (if this expression is lower, the grade is 0)
GCLM NUMBER OF GENES grade (1%): 0 (if this expression is lower, the grade is 0)
HMOX1 NUMBER OF GENES grade (1%): 0 (if this expression is lower, the grade is 0)
NQO1 NUMBER OF GENES grade (1%): 0 (if this expression is lower, the grade is 0)
NQO2 NUMBER OF GENES grade (1%): 0 (if this expression is lower, the grade is 0)
S100A8 expression compared to control (1%): 0.9
S100A8 grade (NUMBER OF GENES) (1%): 0 (if this expression is lower, the grade is 0)
SLC7A11 NUMBER OF GENES grade (1%): 1 (If the expression is greater than 1.3 compared to the control, a grade of 11s given)
TOTAL ARE (number of genes) (1%): 1
TXNRD1 NUMBER OF GENES grade (1%): 0 (if this expression is lower, the grade is 0)
UGT1A1 NUMBER OF GENES grade (1%): 0 (if this expression is lower, the grade is 0)
UGT1A9 NUMBER OF GENES grade (1%): 0 (if this expression is lower, the grade is 0)
AHR expression (1%, compared to the control): 1.1
AKR1B10 expression (1%, compared to the control): 1.1
AKR1C1 expression (1%, compared to the control): 1.0
AKR1C2 expression (1%, compared to the control): 1.0
CYP1A1 expression (1%, compared to the control): 0.9
CYP1B1 expression (1%, compared to the control): 1.1
FTH1P expression (1%, compared to the control): 1.0
FTL expression (1%, compared to the control): 1.1
GCLC expression (1%, compared to the control): 1.1
GCLM expression (1%, compared to the control): 0.9
HMOX1 expression (1%, compared to the control): 0.9
NQO1 expression (1%, compared to the control): 1.1
NQO2 expression (1%, compared to the control): 1.0
SLC7A11 expression (1%, compared to the control): 1.4
TXNRD1 expression (1%, compared to the control): 0.9
UGT1A1 expression (1%, compared to the control): 1.2
UGT1A9 expression (1%, compared to the control): 0.6
